A short description of data set [1]: Selectivity ratio of Ki for dopamine D1 receptor to Ki for dopamine D2 receptor in rat forebrain.
A further data set has as its target D(1A) dopamine receptor (Rattus norvegicus, UniProt P18901). Briefly: Displacement of [3H]SCH23390 from dopamine D1 receptor in rat forebrain. For orientation: Loss of bound radioactivity is the signal in a displacement assay; it reports binding, not function.
Another data set has as its target D(2) dopamine receptor (Rattus norvegicus, UniProt P61169). Briefly: Displacement of [3H]nemonapride from dopamine D2 receptor in rat forebrain.
In data set [2] the test system is Rattus norvegicus. Briefly: Induction of locomotor activity in adult rat at 4 umol/kg, ip after 12 to 24 hrs. Type of data set: functional, organism-based.
Data set [3] deals with Rattus norvegicus. Briefly: Toxicity in adult rat assessed as induction of sedation at 4 umol/kg, ip after 12 to 20 hrs. The note with it: in vivo. Type of data set: organism-based.

9 compounds from ChEMBL document CHEMBL1139330, “Synthesis and neuropharmacological evaluation of esters of R(-)-N-alkyl-11-hydroxy-2-methoxynoraporphines” (Bioorg Med Chem Lett, 2009) can be followed below.

Activity calls are given as the source filed them. No cut-off for these calls is given here.

A word on the Ki: it is a measure of affinity in units of concentration, obtained from inhibition or displacement. Low readings indicate tighter binding, high ones weaker binding.

Sequence of D(2) dopamine receptor (P61169 whole entry): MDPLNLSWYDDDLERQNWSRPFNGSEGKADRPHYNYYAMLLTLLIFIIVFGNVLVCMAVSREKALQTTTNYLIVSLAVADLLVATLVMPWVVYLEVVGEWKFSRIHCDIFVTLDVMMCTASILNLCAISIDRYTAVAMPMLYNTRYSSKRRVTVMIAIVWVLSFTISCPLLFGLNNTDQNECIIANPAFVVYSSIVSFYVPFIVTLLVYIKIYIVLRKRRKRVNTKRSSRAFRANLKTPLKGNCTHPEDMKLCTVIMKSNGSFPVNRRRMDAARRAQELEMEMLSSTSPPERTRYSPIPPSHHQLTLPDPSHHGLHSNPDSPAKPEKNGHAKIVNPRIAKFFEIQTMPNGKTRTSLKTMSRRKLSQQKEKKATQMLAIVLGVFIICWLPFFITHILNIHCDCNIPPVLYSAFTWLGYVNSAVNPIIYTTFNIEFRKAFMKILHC
Sequence of D(1A) dopamine receptor (P18901 whole entry): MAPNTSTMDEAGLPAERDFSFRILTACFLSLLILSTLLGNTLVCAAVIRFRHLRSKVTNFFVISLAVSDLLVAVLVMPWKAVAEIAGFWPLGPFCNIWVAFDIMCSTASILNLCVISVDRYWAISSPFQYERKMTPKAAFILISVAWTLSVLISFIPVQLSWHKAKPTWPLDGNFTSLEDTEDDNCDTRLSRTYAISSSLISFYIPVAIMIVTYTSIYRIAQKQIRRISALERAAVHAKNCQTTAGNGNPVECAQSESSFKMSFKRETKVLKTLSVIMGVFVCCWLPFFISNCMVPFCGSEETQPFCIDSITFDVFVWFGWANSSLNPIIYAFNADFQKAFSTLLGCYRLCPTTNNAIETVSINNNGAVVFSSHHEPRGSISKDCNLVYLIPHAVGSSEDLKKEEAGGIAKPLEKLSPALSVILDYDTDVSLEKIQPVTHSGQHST

`CN1CCc2cccc3c2[C@H]1Cc1ccc(O)c(O)c1-3` [APOMORPHINE]: the ratio in data set [1] amounted to 532.

In the case of `CCCN1CCc2cc(OC)cc3c2[C@H]1Cc1cccc(O)c1-3`, the ratio in data set [1] worked out at 38.

Turning to `CCCCC(=O)Oc1cccc2c1-c1cccc3c1[C@@H](C2)N(CCC)CC3`, the ratio in data set [1] is greater than 58. Further, the inhibitory constant (Ki) at D(1A) dopamine receptor is greater than 20000 nM.

For the compound `CCCCC(=O)Oc1cccc2c1-c1cc(OC)cc3c1[C@@H](C2)N(CCC)CC3`, the Ki on D(2) dopamine receptor is 89 nM; at D(1A) dopamine receptor, greater than 10000 nM. Further, the outcome with Rattus norvegicus [2] was inactive. The Activity result in the data set on Rattus norvegicus [3] was “Toxic”. Further, in data set [1], the ratio was greater than 112.

With `CCCCC(=O)Oc1cccc2c1-c1cc(OC)cc3c1[C@@H](C2)N(C)CC3`, the Ki at D(2) dopamine receptor worked out at 192 nM; on D(1A) dopamine receptor it was 1480 nM. Further, in data set [1], the ratio stood at 8.

On to `COc1cc2c3c(c1)-c1c(O)cccc1C[C@H]3N(C)CC2`, for which the ratio in data set [1] amounted to 0.2.

As to `COc1cc2c3c(c1)-c1c(cccc1OC(C)=O)C[C@H]3N(C)CC2`, the inhibition constant (Ki) at D(2) dopamine receptor turned out to be 165 nM; on D(1A) dopamine receptor it was 526 nM. Also, the ratio in data set [1] worked out at 3.

Turning to `CCCN1CCc2cc(OC)cc3c2[C@H]1Cc1cccc(OC(C)=O)c1-3`, the results for the Ki on D(2) dopamine receptor and at D(1A) dopamine receptor were 18.9 nM and greater than 10000 nM, respectively. In the data set with Rattus norvegicus [2], the outcome was Active. In data set [1], the ratio was greater than 529.

For the compound `CCCN1CCc2cccc3c2[C@H]1Cc1cccc(OC(C)=O)c1-3`, the ratio in data set [1] was greater than 138. On D(1A) dopamine receptor, this compound gave a Ki greater than 10000 nM.
